Results published in patent publication US10335409B2 (priority 2012, dated 2019).

Tests used:
Format in all cases: cell-based, hepatitis C virus
[1] = tested on: genotype 1a (H77) stable HCV replicon in Huh-7-derived cells; experiment: Stable subgenomic HCV replicon EC50, genotype 1a (Renilla luciferase); settings: Hepatitis C virus, stable replicon genotype 1a, 72 h, read-out: EC50 1A RLUC
Summary of the method: (§1)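 Compounds, three-fold diluted, were applied to Huh-7-derived cells harbouring luciferase replicons (genotype 1a H77, 1b Con1, 2a JFH-1, 4a ED43, with strain-specific adaptive mutations). Seventy-two hours later, intracellular replication was gauged by Renilla luciferase activity and EC50 derived by regression.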

[2] = tested on: genotype 1b (Con1) stable HCV replicon in Huh-7-derived cells; experiment: Stable subgenomic HCV replicon EC50, genotype 1b (Renilla luciferase); settings: Hepatitis C virus, stable replicon genotype 1b, 72 h, read-out: EC50 1B RLUC
Summary of the method: as §1

[3] = tested on: genotype 2a (JFH-1) stable HCV replicon in Huh-7-derived cells; experiment: Stable subgenomic HCV replicon EC50, genotype 2a (Renilla luciferase); settings: Hepatitis C virus, stable replicon genotype 2a, 72 h, read-out: EC50 2A RLUC
Summary of the method: as §1

[4] = tested on: genotype 3a (S52) stable HCV replicon in Huh-7-derived cells; experiment: Stable subgenomic HCV replicon EC50, genotype 3a (Renilla luciferase); settings: Hepatitis C virus, 72 h, read-out: EC50 3A RLUC
[5] = tested on: genotype 4a (ED43) stable HCV replicon in Huh-7-derived cells; experiment: Stable subgenomic HCV replicon EC50, genotype 4a (Renilla luciferase); settings: Hepatitis C virus, 72 h, read-out: EC50 4A RLUC
Summary of the method: as §1

[6] = tested on: genotype 3a (S52) wild type transient HCV replicon in Huh-7-derived cells; experiment: Transient-transfected HCV replicon EC50, genotype 3a wild type; settings: Hepatitis C virus; transient-transfected replicon genotype 3a wild type, 72 h; read-out: EC50 3A WT
[7] = tested on: genotype 1a (H77) wild type transient HCV replicon in Huh-7-derived cells; experiment: Transient-transfected HCV replicon EC50, genotype 1a wild type; settings: Hepatitis C virus, 72 h, transient-transfected replicon genotype 1a wild type, read-out: EC50 1A WT
[8] = tested on: genotype 1a NS3/4a protease inhibitor resistant variant R155K transient HCV replicon in Huh-7-derived cells; experiment: Transient-transfected HCV replicon EC50, genotype 1a R155K; settings: Hepatitis C virus, 72 h, read-out: EC50 1A R155K, transient-transfected replicon genotype 1a R155K resistant variant, 72 h
[9] = tested on: genotype 1b (Con1) wild type transient HCV replicon in Huh-7-derived cells; experiment: Transient-transfected HCV replicon EC50, genotype 1b wild type; settings: Hepatitis C virus, 72 h, transient-transfected replicon genotype 1b wild type, read-out: EC50 1B WT
[10] = tested on: genotype 1b NS3/4a protease inhibitor resistant variant D168A transient HCV replicon in Huh-7-derived cells; experiment: Transient-transfected HCV replicon EC50, genotype 1b D168A; settings: Hepatitis C virus, 72 h, read-out: EC50 1B D168A, transient-transfected replicon genotype 1b D168A resistant variant, 72 h

With `CC[C@@H]1[C@@H]2CN(C(=O)[C@H](C(C)(C)C)NC(=O)O[C@@]3(C)C[C@@H]3CCCCC(F)(F)c3nc4ccc(OC)cc4nc3O2)[C@@H]1C(=O)N[C@]1(C(=O)NS(=O)(=O)C2(C)CC2)C[C@H]1C(F)F` [Example 64, (1aS,5S,8S,9S,10R,22aS)-5-tert-butyl-N-[(1R,2R)-2-(difluoromethyl)-1-{[(1-methylcyclopropyl)sulfonyl]carbamoyl}cyclopropyl]-9-ethyl-18,18-difluoro-14-methoxy-1a-methyl-3,6-dioxo-1,1a,3,4,5,6,9,10,18,19,20,21,22,22a-tetradecahydro-8H-7,10-methanocyclopropa[18,19][1,10,3,6]dioxadiazacyclononadecino[11,12-b]quinoxaline-8-carboxamide] the EC50 [1] was 100 nM, the EC50 [2] was 38 nM and the EC50 [3] was 48 nM. For the same molecule, the EC50 [4] was 671 nM, the EC50 [5] was 34 nM and the EC50 [6] was 256 nM. It also gave an EC50 [7] of 37 nM, an EC50 [8] of 50 nM and an EC50 [9] of 17 nM. It also gave an EC50 [10] of 104 nM.
In the case of `C[C@@H]1[C@@H]2CN(C(=O)[C@H](C(C)(C)C)NC(=O)O[C@@H]3C[C@@H]4C[C@@H]4[C@H]3CCCCC(F)(F)c3nc4ccccc4nc3O2)[C@@H]1C(=O)N[C@]1(C(=O)NS(=O)(=O)C2(C)CC2)C[C@H]1C(F)F` [Example 82, (1aS,2aR,6S,9S,10S,11R,23aR,23bS)-6-tert-butyl-N-[(1R,2R)-2-(difluoromethyl)-1-{[(1-methylcyclopropyl)sulfonyl]carbamoyl}cyclopropyl]-19,19-difluoro-10-methy-4,7-dioxo-1a,2,2a,4,5,6,7,10,11,19,20,21,22,23,23a,23b-hexadecahydro-1H,9H-8,11-methanocyclopropa[4′,5′]cyclopenta[1′,2′:18,19][1,10,3,6]dioxadiazacyclononadecino[11,12-b]quinoxaline-9-carboxamide], the EC50 [1] is reported as 8.5 nM, the EC50 [2] is reported as 9.3 nM and the EC50 [3] is reported as 4.7 nM. The EC50 [4] was 25 nM, the EC50 [5] was 10 nM and the EC50 [6] was 16 nM. The EC50 [7] was 7.8 nM, the EC50 [8] was 6.2 nM and the EC50 [9] was 4.1 nM. The EC50 [10] was 5.7 nM.
`CC[C@@H]1[C@@H]2CN(C(=O)[C@H](C(C)(C)C)NC(=O)O[C@@H]3C[C@H]3CCCCC(F)(F)c3nc4ccc(OC)cc4nc3O2)[C@@H]1C(=O)NC1(C(=O)NS(=O)(=O)C2(C)CC2)C[C@H]1CC` (stereo partly drawn) [Example 93, (1aR,5S,8S,9S,10R,22aR)-5-tert-butyl-9-ethyl-N-[(2R)-2-ethyl-1-{[(1-methylcyclopropyl)sulfonyl]carbamoyl}cyclopropyl]-18,18-difluoro-14-methoxy-3,6-dioxo-1,1a,3,4,5,6,9,10,18,19,20,21,22,22a-tetradecahydro-8H-7,10-methanocyclopropa[18,19][1,10,3,6]dioxadiazacyclononadecino[11,12-b]quinoxaline-8-carboxamide] showed an EC50 [1] of 12 nM, an EC50 [2] of 14 nM and an EC50 [3] of 15 nM. For the same molecule, the EC50 [4] was 116 nM, the EC50 [5] was 11 nM and the EC50 [6] was 26 nM. It also gave an EC50 [7] of 13 nM, an EC50 [8] of 13 nM and an EC50 [9] of 14 nM. It also gave an EC50 [10] of 39 nM.
Molecule `CC[C@@H]1[C@@H]2CN(C(=O)[C@H](C(C)(C)C)NC(=O)O[C@@H]3C[C@H]3CC/C=C/C(F)(F)c3nc4ccc(C#N)cc4nc3O2)[C@@H]1C(=O)N[C@]1(C(=O)NS(=O)(=O)C2(C)CC2)C[C@H]1C(F)F` [Example 84, (1aR,5S,8S,9S,10R,19E,22aR)-5-tert-butyl-14-cyano-N-[(1R,2R)-2-(difluoromethyl)-1-{[(1-methylcyclopropyl)sulfonyl]carbamoyl}cyclopropyl]-9-ethyl-18,18-difluoro-3,6-dioxo-1,1a,3,4,5,6,9,10,18,21,22,22a-dodecahydro-8H-7,10-methanocyclopropa[18,19][1,10,3,6]dioxadiazacyclononadecino[11,12-b]quinoxaline-8-carboxamide] has an EC50 [1] of 5.9 nM, an EC50 [2] of 5.7 nM and an EC50 [3] of 7.2 nM. For the same molecule, the EC50 [4] was 27 nM, the EC50 [5] was 6.4 nM and the EC50 [6] was 11 nM. For the same molecule, the EC50 [7] was 5.4 nM, the EC50 [8] was 4 nM and the EC50 [9] was 2.5 nM. It also gave an EC50 [10] of 5.2 nM.
`CC[C@@H]1[C@@H]2CN(C(=O)[C@H](C(C)(C)C)NC(=O)O[C@@H]3C[C@H]3CCCCC(F)(F)c3nc4ccc(OC(F)F)cc4nc3O2)[C@@H]1C(=O)N[C@]1(C(=O)NS(=O)(=O)C2(C)CC2)C[C@H]1C(F)F` [Example 85, (1aR,5S,8S,9S,10R,22aR)-5-tert-butyl-14-(difluoromethoxy)-N-[(1R,2R)-2-(difluoromethyl)-1-{[(1-methylcyclopropyl)sulfonyl]carbamoyl}cyclopropyl]-9-ethyl-18,18-difluoro-3,6-dioxo-1,1a,3,4,5,6,9,10,18,19,20,21,22,22a-tetradecahydro-8H-7,10-methanocyclopropa[18,19][1,10,3,6]dioxadiazacyclononadecino[11,12-b]quinoxaline-8-carboxamide] showed an EC50 [1] of 16 nM, an EC50 [2] of 17 nM and an EC50 [3] of 7.7 nM. It also gave an EC50 [4] of 304 nM, an EC50 [5] of 9.2 nM and an EC50 [6] of 101 nM. It also gave an EC50 [7] of 12 nM, an EC50 [8] of 22 nM and an EC50 [9] of 7 nM. For the same molecule, the EC50 [10] was 57 nM.
In the case of `CC[C@@H]1[C@@H]2CN(C(=O)[C@H](C(C)(C)C)NC(=O)O[C@@H]3C[C@H]3CCCCC(F)(F)c3nc4ccc(OC)cc4nc3O2)[C@@H]1C(=O)N[C@]1(C(=O)NS(=O)(=O)C2CC2)C[C@H]1CC` [Example 34, (1aR,5S,8S,9S,10R,22aR)-5-tert-butyl-N-{(1R,2R)-1-[(cyclopropylsulfonyl)carbamoyl]-2-ethylcyclopropyl}-9-ethyl-18,18-difluoro-14-methoxy-3,6-dioxo-1,1a,3,4,5,6,9,10,18,19,20,21,22,22a-tetradecahydro-8H-7,10-methanocyclopropa[18,19][1,10,3,6]dioxadiazacyclononadecino[11,12-b]quinoxaline-8-carboxamide], the EC50 [1] is reported as 12 nM, the EC50 [2] is reported as 13 nM and the EC50 [3] is reported as 18 nM. It also gave an EC50 [4] of 322 nM, an EC50 [5] of 9.7 nM and an EC50 [6] of 46 nM. For the same molecule, the EC50 [7] was 15 nM, the EC50 [8] was 18 nM and the EC50 [9] was 9 nM. It also gave an EC50 [10] of 64 nM.
Molecule `C=C[C@@H]1C[C@]1(NC(=O)[C@@H]1[C@H](CC)[C@@H]2CN1C(=O)[C@H](C(C)(C)C)NC(=O)O[C@@H]1C[C@H]1CCCCCc1nc3ccc(OC)cc3nc1O2)C(=O)NS(=O)(=O)C1CC1` [Example 91, (1aR,5S,8S,9S,10R,22aR)-5-tert-butyl-N-{(1R,2S)-1-[(cyclopropylsulfonyl)carbamoyl]-2-ethenylcyclopropyl}-9-ethyl-14-methoxy-3,6-dioxo-1,1a,3,4,5,6,9,10,18,19,20,21,22,22a-tetradecahydro-8H-7,10-methanocyclopropa[18,19][1,10,3,6]dioxadiazacyclononadecino[11,12-b]quinoxaline-8-carboxamide] has an EC50 [1] of 2.4 nM, an EC50 [2] of 1.9 nM and an EC50 [3] of 4 nM. It also gave an EC50 [4] of 149 nM, an EC50 [5] of 2.4 nM and an EC50 [6] of 25 nM. It also gave an EC50 [7] of 2.3 nM, an EC50 [8] of 3.5 nM and an EC50 [9] of 1.3 nM. It also gave an EC50 [10] of 9.2 nM.
`C=C[C@@H]1C[C@]1(NC(=O)[C@@H]1[C@H](CC)[C@@H]2CN1C(=O)[C@H](C(C)(C)C)NC(=O)O[C@@H]1C[C@H]1CCCCC(F)(F)c1nc3ccc(OC)cc3nc1O2)C(=O)NS(=O)(=O)C1CC1` [Example 92, (1aR,5S,8S,9S,10R,22aR)-5-tert-butyl-N-{(1R,2S)-1-[(cyclopropylsulfonoyl)carbamoyl]-2-ethenylcyclopropyl}-9-ethyl-18,18-difluoro-14-methoxy-3,6-dioxo-1,1a,3,4,5,6,9,10,18,19,20,21,22,22a-tetradecahydro-8H-7,10-methanocyclopropa[18,19][1,10,3,6]dioxadiazacyclononadecino[11,12-b]quinoxaline-8-carboxamide] gave an EC50 [1] of 3.3 nM, an EC50 [2] of 3.2 nM and an EC50 [3] of 4.6 nM. For the same molecule, the EC50 [4] was 58 nM, the EC50 [5] was 3.2 nM and the EC50 [6] was 8 nM. For the same molecule, the EC50 [7] was 3 nM, the EC50 [8] was 3 nM and the EC50 [9] was 1.7 nM. It also gave an EC50 [10] of 5.3 nM.
